We go through 24 compounds from patent US20030050306A1, “Novel heteroaryl derivatives, their preparation and use” (H. Lundbeck A/S, priority 1999, published 2003).

For experiment [1], the target named is T1, human cloned dopamine D4.2 receptors (Homo sapiens, UniProt P21917, DEL265-296).
T1 construct: expressed in transfected cells; host or cells: CHO cells
T1 sequence (P21917 with tags, fused parts or gaps DEL265-296): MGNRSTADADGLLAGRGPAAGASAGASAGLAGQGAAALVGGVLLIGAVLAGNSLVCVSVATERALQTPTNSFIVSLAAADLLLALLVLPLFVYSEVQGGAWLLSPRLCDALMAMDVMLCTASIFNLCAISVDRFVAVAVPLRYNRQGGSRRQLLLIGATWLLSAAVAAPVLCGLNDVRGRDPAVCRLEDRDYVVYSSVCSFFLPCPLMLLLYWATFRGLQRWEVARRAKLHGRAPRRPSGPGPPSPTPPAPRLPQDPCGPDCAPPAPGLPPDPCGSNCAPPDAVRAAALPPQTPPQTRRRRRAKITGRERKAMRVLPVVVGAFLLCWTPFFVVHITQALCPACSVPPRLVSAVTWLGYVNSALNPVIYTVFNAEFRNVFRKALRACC
Kind of experiment: Inhibition of the binding of 3H-YM-09151-2 to human dopamine D4 receptors. Particulars: human cloned dopamine D4.2 receptors in CHO-cells. As for the experimental part:
The compounds of the invention have also been tested for their affinity to dopamine D4 receptors in the following test.
Inhibition of the Binding of ^3H-YM-09151-2 to Human Dopamine D4 Receptors
By this method the inhibition by drugs of the binding of [^3H]YM-09151-2 (0.06 nM) to membranes of human cloned dopamine D4.2 receptors expressed in CHO-cells is determined in vitro. Method modified from NEN Life Science Products, Inc., technical data certificate PC2533-10/96.

Experiment [2] addresses T2, cloned human 5-HT1A receptors (Homo sapiens, UniProt P08908).
T2 construct: expressed in transfected cells; host or cells: HeLa cells (HA7)
T2 sequence (P08908 1-422): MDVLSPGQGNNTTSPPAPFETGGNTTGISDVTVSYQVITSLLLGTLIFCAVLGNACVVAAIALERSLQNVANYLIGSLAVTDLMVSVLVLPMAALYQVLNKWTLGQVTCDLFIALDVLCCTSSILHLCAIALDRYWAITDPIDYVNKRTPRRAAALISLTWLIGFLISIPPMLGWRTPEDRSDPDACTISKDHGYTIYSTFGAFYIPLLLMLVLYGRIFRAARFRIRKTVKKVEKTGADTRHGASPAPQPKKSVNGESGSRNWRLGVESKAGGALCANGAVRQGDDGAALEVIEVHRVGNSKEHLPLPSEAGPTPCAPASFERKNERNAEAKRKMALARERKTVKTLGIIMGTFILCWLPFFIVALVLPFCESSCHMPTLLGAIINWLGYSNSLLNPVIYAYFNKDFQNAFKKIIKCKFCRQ
Kind of experiment: Inhibition of 3H-5-CT binding to human 5-HT1A receptors. To be noted: cloned human 5-HT1A receptors in HeLa cells (HA7). As for the experimental part:
The affinity of the compounds of the invention to 5-HT1A receptors was determined by measuring the inhibition of binding of a radioactive ligand at 5-HT1A receptors as described in the following test:
Inhibition of ^3H-5-CT Binding to Human 5-HT1A Receptors
By this method the inhibition by drugs of the binding of the 5-HT1A agonist ^3H-5-carboxamido tryptamine (3H-5-CT) to cloned human 5-HT1A receptors stably expressed in transfected HeLa cells (HA7) (Fargin, A. et al, J. Biol. Chem., 1989, 264, 14848) is determined in vitro. The assay was performed as a modification of the method described by Harrington, M. A. et at, J. Pharmacol. Exp. Ther., 1994, 268, 1098. Human 5-HT1A receptors (40 μg of cell homogenate) were incubated for 15 minutes at 37° C. in 50 mM Tris buffer at pH 7.7 in the presence of ^3H-5-CT. Non-specific binding was determined by including 10 μM of metergoline. The reaction was terminated by rapid filtration through Unifilter GF/B filters on a Tomtec Cell Harvester. Filters were counted in a Packard Top Counter.

What is called IC50 is the concentration needed to halve the response being measured. The low end stands for inhibition by little substance, the high end for a need for much substance. One may read the inhibition as the drop in the measured response relative to a control, in per cent. Regarding `Cc1cccc(Cl)c1SCCCCN1CCN(c2cc(Cl)cc3c2OCC3(C)C)CC1` [Compound 5ay, 1-(5-Chloro-3,3-dimethyl-2,3-dihydro-benzofuran-7-yl)-4-[4-(2-chloro-6-methyl-phenylsulfanyl)-butyl]-piperazine], the half-maximal inhibitory concentration (IC50) in experiment [1] is 12 nM. In experiment [2] (at 100 nM), the inhibition at 0.1 µM is 14%.
As to `Fc1ccccc1SCCCN1CCN(c2cccc3c2OCCO3)CC1` [Compound 7ba, 1-(2,3-Dihydro-benzo[1,4]dioxin-5-yl)-4-[3-(2-fluoro-phenylsulfanyl)-propyl]-piperazine], in experiment [1] (at 50 nM), the inhibition at 0.05 µM amounted to 84%. Also, the inhibition at 0.1 µM in experiment [2] (at 100 nM) was 97%.
For the compound `Clc1ccc(SCCCCN2CCN(c3cccc4c3OCCO4)CC2)cc1Cl` [Compound 7an, 1-[4-(3,4-Dichloro-phenylsulfanyl)-butyl]-4-(2,3-dihydro-henzo[1,4]dioxin-5-yl)-piperazine], the “Inhibition of 3H-YM-09151-2 binding % inhibition at 50 nM” value in experiment [1] (at 50 nM) amounted to 91%. The “Inhibition of 3H-5-CT Binding % inhibition at 100 nM” value in experiment [2] (at 100 nM) is 100%.
For `Cc1cccc(Cl)c1SCCCCN1CCN(c2cc(Cl)cc3c2OC(C)(C)C3)CC1` [Compound 5ax, 1-(5-Chloro-2,2-dimethyl-2,3-dihydro-benzofuran-7-yl)-4-[4-(2-chloro-6-methyl-phenylsulfanyl)-butyl]-piperazine], the IC50 in experiment [1] amounted to 23 nM. The inhibition at 0.1 µM in experiment [2] (at 100 nM) was 33%.
Consider `N#Cc1cccc(OCCCCN2CCN(c3cccc4c3OCCO4)CC2)c1` [Compound 7bh, 3-{4-[4-(2,3-Dihydro-benzo[1,4]dioxin-5-yl)-piperazin-1-yl]-butoxy}-benzonitrile], for which, in experiment [1] (at 50 nM), the inhibition at 0.05 µM is 84%. In addition, in experiment [2] (at 100 nM), the inhibition at 0.1 µM is 95%.
Regarding `Cc1ccc(SCCN2CCN(c3cccc4c3OCCO4)CC2)c(C)c1` [Compound 7ad, 1-(2,3-Dihydro-benzo[1,4]dioxin-5-yl)-4-[2-(2,4-dimethyl-phenylsulfanyl)-ethyl]-piperazine], in experiment [1] (at 50 nM), the inhibition at 0.05 µM was determined as 91%. In experiment [2], the IC50 turned out to be 21 nM.
On to `Brc1cc(Br)c(OCCCN2CCN(c3cccc4c3OCCO4)CC2)c(Br)c1` [Compound 5bq, 1-(2,3-Dihydro-benzof[1,4]dioxin-5-yl)-4-[3-(2,4,6-tribromo-phenoxy)-propyl]-piperazine], for which the IC50 came out at 2.4 nM in experiment [1] and 1.2 nM in experiment [2].
For the compound `Clc1ccccc1SCCCN1CCN(c2cccc3c2OCCO3)CC1` [Compound 5cd, 1-[3-(2-Chloro-phenylsulfanyl)-propyl]-4-(2,3-dihydro-benzo[1,4]dioxin-5-yl)-piperazine], the results for the IC50 in experiment [1] and in experiment [2] were 2.3 nM and 8.8 nM, respectively.
Turning to `c1ccc(SCCCN2CCN(c3cccc4c3OCCO4)CC2)cc1` [Compound 4a, 1-(2,3-Dihydro-benzo[1,4]dioxin-5-yl)-4-(3-phenylsulfanyl-propyl)-piperazine], the values for the IC50 in experiment [1] and in experiment [2] were 1.3 nM and 2.8 nM, respectively.
As for `Fc1cc(Br)cc(F)c1OCCCCN1CCN(c2cccc3ccsc23)CC1` [Compound 5cc, 1-Benzo[b]thiophen-7-yl-4-[4-(4-bromo-2,6-difluoro-phenoxy)-butyl]-piperazine], the IC50 stood at 34 nM in experiment [1] and 9.7 nM in experiment [2].
In the case of `N#Cc1ccc(N2CCN(CCCOc3ccc(F)cc3Br)CC2)c2c1OCCO2` [Compound 6b, 8-{4-[3-(2-Bromo-4-fluoro-phenoxy)-propyl]-piperazin-1-yl}-2,3-dihydro-benzo[1,4]dioxine-5-carbonitrile], the results for the IC50 in experiment [1] and in experiment [2] were 10 nM and 230 nM, respectively.
As for `FC(F)(F)c1ccc(OCCCN2CCN(c3cccc4c3OCCO4)CC2)cc1` [Compound 2b, 1-(2,3-Dihydro-benzo[1,4]dioxin-5-yl)-4-[3-(4-trifluoromethyl-phenoxy)-propyl]-piperazine], the values for the IC50 in experiment [1] and in experiment [2] were 12 nM and 15 nM, respectively.
For the compound `Cc1cccc(C)c1SCCCCN1CCN(c2cccc3c2OCCO3)CC1` [Compound 7ac, 1-(2,3-Dihydro-benzo[1,4]dioxin-5-yl)-4-[4-(2,6-dimethyl-phenylsulfanyl)-butyl]-piperazine], the inhibition at 0.05 µM in experiment [1] (at 50 nM) came out at 96%. Besides, the inhibition at 0.1 µM in experiment [2] (at 100 nM) was found to be 96%.
Take `COc1c(Cl)cccc1SCCCCN1CCN(c2cccc3c2OCCO3)CC1` [Compound 5ag, 1-[4-(3-Chloro-2-methoxy-phenylsulfanyl)-butyl]-4-(2,3-dihydro-henzo[1,4]dioxin-5-yl)-piperazine]: the IC50 was determined as 3.1 nM in experiment [1] and 7.4 nM in experiment [2].
`Clc1cccc(SCCN2CCN(c3cccc4c3OCCO4)CC2)c1` [Compound 7au, 1-[2-(3-Chloro-phenylsulfanyl)-ethyl]-4-(2,3-dihydro-benzo[1,4]dioxin-5-yl)-piperazine]: the inhibition at 0.05 µM in experiment [1] (at 50 nM) is 87%. Also, the inhibition at 0.1 µM in experiment [2] (at 100 nM) is 84%.
With `Fc1cc(Cl)c(OCCCN2CCN(c3cccc4ccsc34)CC2)c(Cl)c1` [Compound 5au, 1-Benzo[b]thiophen-7-yl-4-[3-(2,6-dichloro-4-fluoro-phenoxy)-propyl]-piperazine], the results for the half-maximal inhibitory concentration (IC50) in experiment [1] and in experiment [2] were 7.6 nM and 6.4 nM, respectively.
As for `Fc1ccc(OCCCCN2CCN(c3cccc4c3OCCO4)CC2)c(Br)c1` [Compound 5be, 1-[4-(2-Bromo-4-fluoro-phenoxy)-butyl]-4-(2,3-dihydro-benzo[1,4]dioxin-5-yl)-piperazine], the IC50 in experiment [1] came to 1.2 nM; in experiment [2], 8 nM.
Consider `Clc1ccc(SCCCN2CCN(c3cccc4c3OCCO4)CC2)cc1Cl` [Compound 7am, 1-[3-(3,4-Dichloro-phenylsulfanyl)-propyl]-4-(2,3-dihydro-benzo[1,4]dioxin-5-yl)-piperazine], for which the inhibition at 0.05 µM in experiment [1] (at 50 nM) stood at 99%. For the same compound, the inhibition at 0.1 µM in experiment [2] (at 100 nM) was found to be 100%.
Take `Clc1ccccc1SCCCCN1CCN(c2cccc3c2OCCO3)CC1` [Compound 7be, 1-[4-(2-Chloro-phenylsulfanyl)-butyl]-4-(2,3-dihydro-benzo[1,4]dioxin-5-yl)-piperazine]: the inhibition at 0.05 µM in experiment [1] (at 50 nM) was 102%. Further, in experiment [2] (at 100 nM), the inhibition at 0.1 µM worked out at 102%.
For `Fc1cc(Cl)c(OCCCN2CCN(c3cccc4c3OCCO4)CC2)c(Cl)c1` [Compound 5at, 1-[3-(2,6-Dichloro-4-fluoro-phenoxy)-propyl]-4-(2,3-dihydro-benzo[1,4]dioxin-5-yl)-piperazine], the IC50 was found to be 3.4 nM in experiment [1] and 2.2 nM in experiment [2].
Regarding `CC1(C)Cc2cc(Cl)cc(N3CCN(CCCOc4c(Cl)cc(F)cc4Cl)CC3)c2O1` [Compound 5bk, 1-(5-Chloro-2,2-dimethyl-2,3-dihydro-benzofuran-7-yl)-4-[3-(2,6-dichloro-4-fluoro-phenoxy)-propyl]-piperazine], the IC50 in experiment [1] was 11 nM; in experiment [2], 22 nM.
`Fc1cc(Br)cc(F)c1OCCCN1CCN(c2cccc3c2OCCO3)CC1` [Compound 5cg, 1-[3-(4-Bromo-2,6-difluoro-phenoxy)-propyl]-4-(2,3-dihydro-benzo[1,4]dioxin-5-yl)-piperazine]: the values for the IC50 in experiment [1] and in experiment [2] were 12 nM and 1.7 nM, respectively.
For `Cc1ccccc1SCCN1CCN(c2cccc3c2OCCO3)CC1` [Compound 7bo, 1-(2,3-Dihydro-benzo[1,4]dioxin-5-yl)-4-(2-o-tolylsulfanyl-ethyl)-piperazine], the inhibition at 0.05 µM in experiment [1] (at 50 nM) amounted to 102%. In addition, the inhibition at 0.1 µM in experiment [2] (at 100 nM) is 91%.
For the compound `COc1ccc(OC)c(SCCCN2CCN(c3cccc4c3OCCO4)CC2)c1` [Compound 7bk, 1-(2,3-Dihydro-benzo[1,4]dioxin-5-yl)-4-[3-(2,5-dimethoxy-phenylsulfanyl)-propyl]-piperazine], the inhibition at 0.05 µM in experiment [1] (at 50 nM) was 84%. Further, the inhibition at 0.1 µM in experiment [2] (at 100 nM) stood at 91%.
